Read-outs that look alike come from different tables or passages of the source.
Columns and labels:
[1] = tested on: collagen type II-induced arthritis (CIA) in mice
[2] = tested on: Akt phosphorylation on Ser473; test: Inhibition of activation of Akt kinase (phospho-Akt Ser473 assay in RBL-2H3 cells); format: cell-based, rat; settings: IgE and antigen for 15 min
From the text: The mast cell degranulation assay using the RBL-2H3 cell line (see example 5) was also used to determine the status of the PI3K/Akt axis. Activation of PI3K leads to production of PIP3 on the cytosolic side of the lipid bilayer. Akt is recruited to the PIP3 domain and subsequently activated by phosphorylation on residues Ser473 and Thr308. (Franke et al., Cell 81:727-736, (1995)). Once recruited to the membrane, it is phosphorylated and activated by other kinases (Hemmings, Science 275:628-630 (1997); Hemmings, Science 276:534 (1997); Downward, Science 279:673-674 (1998); Alessi et al., EMBO J. 15:6541-6551 (1996)). Western blotting of the phosphorylated Ser473 residue on Akt (phospho-Akt Ser473) is widely used to assess the level of activation of the PI3K/Akt axis.
All buffers and solutions used for the phosphor-Akt Ser473 assay were from Meso Scale Discovery. Tris Lysis Buffer consisted of 150 mM NaCl, 20 mM Tris, pH 7.5, 1 mM EDTA, 1 mM EGTA and 1% Triton-X-100. Complete Tris Lysis Buffer was prepared prior to use by addition of protease inhibitor, phosphatase inhibitors and PMSF. […] Read Buffer T was used according to manufacturer's instructions. […]
Protein assay: protein concentration was determined using the BCA (bicinchoninic acid) Protein Assay kit according to the manufacturer's instructions. […] Plates were cooled to room temperature for 5 min and absorbance at 562 nm was measured in a multi-mode plate reader. Protein concentrations were calculated using FlexStation 3 software (SoftMax Pro version 5.3). Protein concentration of lysates was determined from a standard curve (BSA) using a linear curve fit.
Phosphoprotein assay: protein phosphorylation was determined using the MULTI-SPOT® Assay System (Mesa Scale Discovery), providing simultaneous detection of phosphorylated and total proteins. […] The optimal amount of protein was determined at 5 μg lysate per well for ERK½ and 10 μg/well for phospho-Akt Ser473. […] After a final four washes with Tris Wash Buffer 150 μl/well, Read Buffer T was added, and plates read on a SECTOR Imager 6000 plate reader. […]

[3] = tested on: local lymph node reaction; test: Local lymph node weight and cell count after TDI challenge; settings: topical, diflorasone 0.1% and 0.5%, 1a 2% or 6%
Procedure: Directly after sacrifice, the ear draining lymph node (Ln. auricularis) was prepared and excised. Organ weight was determined by means of an analytical balance (Kern, Balingen, Germany). Single cell suspensions were prepared by means of a glass potter (VWR, Darmstadt, Germany) and cells were counted with a hemocytometer (Neubauer, VWR, Germany).
One of the most undesirable side-effects of corticosteroid administration is immunosuppression, which leads to the inability to effectively address parasitic infection, wound healing and tumor growth. In the current study, the local lymph node reaction after TDI challenge (lymph node weight and cell number) was determined to assess the response of immune organs.

[4] = therapeutic regimen, 100 mg/kg orally twice daily for 20 days, vs vehicle

`CCCCCCCCCCCCCC[N+](C)(C)CC(=O)N(C)C[C@H](O)[C@@H](O)[C@H](O)[C@H](O)CO` [Compound 1a, N-(2-(Dimethyl(tetradecyl)ammonio)acetyl)-N-methyl-D-glucamine chloride] was tested, and the cumulative arthritis score ([1]; prophylactic regimen) was “significantly reduced”, the “duration of the disease” value ([1]; prophylactic regimen) was “significantly reduced” and the arthritic score ([1]; prophylactic, 25 mg/kg orally twice daily, from day 34 to day 47, vs vehicle) was “significantly reduced”. For the same molecule, the paw thickness ([1]; prophylactic, 25 mg/kg, from day 34 after immunization, vs vehicle) was “significant reduction”, the arthritic score ([1]; prophylactic, 100 mg/kg orally twice daily, from day 40 to day 47, vs vehicle) was “significantly reduced” and the arthritis score [1, 4] was “reduced the arthritis score and cumulative arthritis score compared to vehicle treated mice (FIG. 5C), but without reaching statistical significance”. For the same molecule, the cumulative arthritis score [1, 4] was “reduced the arthritis score and cumulative arthritis score compared to vehicle treated mice (FIG. 5C), but without reaching statistical significance”, the duration of disease ([1]; therapeutic regimen, 100 mg/kg, vs vehicle) was “trend to a reduction” and the “Level of phospho-Akt Ser473” value ([2]; 1 μM) was 81.8 ± 42.5 % positive control. The “Level of phospho-Akt Ser473” value ([2]; 5 μM) was 22.6 ± 15.7 % positive control, the “Level of phospho-Akt Ser473” value ([2]; 25 μM) was 6.8 ± 1.8 % positive control and the “local lymph node reaction (lymph node weight and cell number)” value [3] was “only a modest effect”.
